Laboratory results reported in publication PMC12497685, “Anticoronavirus Isoquinoline Alkaloids: Unraveling the Secrets of Their Structure–Activity Relationship” (Influenza and Other Respiratory Viruses, 2025).

Tests used:
[1] = test system: HCoV‐229E; assay: microbe, parasite or virus in culture; format: cell-based; conditions: at 10 μM, compared with vehicle control, Huh7 cells, n = 1
[2] = test system: Huh7 cells; conditions: at 10 μM, compared with vehicle control, n = 1

| Molecule | Protective effects HCoV-229E % [1] | Cytotoxicity to the host Huh7 cells % [2] | inhibition at 10 µM ([1]; Human coronavirus 229E, Huh-7, read-out: Protective effects HCoV-229E %) |
| --- | --- | --- | --- |
| COc1cc2c(cc1OC)[C@@]1(Cc3ccc4c(c3[C@@H]1O)OCO4)N(C)CC2 [Compound 38, (−)‐fumaricine] | — (Not active (insignificant protective effects below 20%)) | — (Non-toxic (insignificant cytotoxic effects, below 20%)) | – |
| COc1ccc2cc3n(c(=O)c2c1OC)CCc1cc2c(cc1-3)OCO2 [Compound 22, 8‐oxoberberine] | — (Not active (insignificant protective effects below 20%)) | — (Non-toxic (insignificant cytotoxic effects, below 20%)) | – |
| COc1cc2c(cc1O)[C@@H]1Cc3cc4c(cc3[C@H](C2)N1C)OCO4 [Compound 34, (−)‐caryachine] | — (Not active (insignificant protective effects below 20%)) | — (Non-toxic (insignificant cytotoxic effects, below 20%)) | – |
| COc1cc2c(cc1OC)C1Cc3ccc4c(c3CN1CC2)OCO4 (stereo not drawn) [Compound 43, (−)‐sinactine] | — (Not active (insignificant protective effects below 20%)) | — (Non-toxic (insignificant cytotoxic effects, below 20%)) | – |
| CO[C@@H]1C=C[C@@]23c4cc5c(cc4CN(C[C@@H]2O)[C@H]3C1)OCO5 [Compound 3, (+)‐haemanthamine] | – | 50% | 50% |
| (+)‐thalictricavine [Compound 27] | — (Not active (insignificant protective effects below 20%)) | – | – |
| COc1cc2c(cc1OC)C1Cc3cc(OC)c(OC)cc3[C@H](C2)N1C [Compound 23, argemonine] | — (Not active (insignificant protective effects below 20%)) | — (Non-toxic (insignificant cytotoxic effects, below 20%)) | – |
| COc1ccc2c(c1O)-c1c3c(cc4c1[C@H](C2)N(C)CC4)OCO3 [Compound 28, (+)‐bulbocapnine] | — (Not active (insignificant protective effects below 20%)) | — (Non-toxic (insignificant cytotoxic effects, below 20%)) | – |
| CN1CCC2=CC[C@H]3OC(=O)c4cc5c(cc4[C@H]3[C@@H]21)OCO5 [Compound 11, masonine] | — (Not active (insignificant protective effects below 20%)) | — (Non-toxic (insignificant cytotoxic effects, below 20%)) | – |
| O[C@H]1C=C[C@@]23CCN(Cc4cc5c(cc42)OCO5)[C@@H]3C1 [Compound 14, (−)‐crinine] | — (Not active (insignificant protective effects below 20%)) | — (Non-toxic (insignificant cytotoxic effects, below 20%)) | – |
| COc1ccc2c(c1O)-c1c(OC)c(OC)cc3c1[C@H](C2)NCC3 [Compound 57, norisocoridine] | — (Not active (insignificant protective effects below 20%)) | — (Non-toxic (insignificant cytotoxic effects, below 20%)) | – |
| O[C@H]1C=C[C@@]23c4cc5c(cc4CN(C[C@@H]2O)[C@H]3C1)OCO5 [Compound 2, (+)‐hamayne] | — (Not active (insignificant protective effects below 20%)) | — (Non-toxic (insignificant cytotoxic effects, below 20%)) | – |
| COc1cc2c(cc1O)[C@@H]1Cc3ccc(OC)c(OC)c3CN1CC2 [Compound 32, tetrahydrocolumbamine] | — (Not active (insignificant protective effects below 20%)) | — (Non-toxic (insignificant cytotoxic effects, below 20%)) | – |
| seco‐isopowellaminone [Compound 6] | — (Not active (insignificant protective effects below 20%)) | 20% | – |
